Tests used:
[1] = system: recombinant NL4-3 virus (nef section replaced with Renilla luciferase gene) in MT-2 cells; test: HIV cell culture assay (antiviral activity, luciferase readout); assay type: cell-based; details: MT-2 cells infected for 4-5 days with recombinant NL4-3 luciferase virus
How it was run: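 Serially diluted compounds were present throughout a 4-5 day infection of MT-2 cells by recombinant NL4-3 whose nef region partly encodes Renilla luciferase. Antiviral activity was taken from live-cell luciferase signal, with the 50% effective concentration fitted by the exponential median effect equation.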

[2] = Compound cytotoxicity, XTT-based colorimetric assay; assay type: cell-based; details: human, uninfected MT2 cells
How it was run: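 XTT colorimetric read-out on day 4 gave CC50 values, using MT2 cells left uninfected but otherwise handled as in the antiviral assay.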

Compound | CC50 at 4 days ([2]; Table 1, day 4, XTT) | CC50 at 4 days ([2]; Table 1a, day 4, XTT) | EC50 ([1]; Renilla, NL43, Table 1a) | EC50 ([1]; Renilla, NL43, Table 1) | further results
Cn1nc(NS(C)(=O)=O)c2c(Cl)ccc(-n3c([C@H](Cc4cc(F)cc(F)c4)NC(=O)Cn4nc(C(F)F)c5c4C(F)(F)[C@@H]4C[C@H]54)nc4ncccc4c3=O)c21 (single isomer, unassigned) [Example 10.39] | > 10000 nM |  |  |  | EC50 ([1]; Table 1): 6.98 nM
Cn1nc(NS(C)(=O)=O)c2c(Cl)ccc(-n3c([C@H](Cc4cc(F)cc(F)c4)NC(=O)Cn4nc(C(F)F)c5c4C(F)(F)[C@@H]4C[C@H]54)nc4cccc(C(F)(F)F)c4c3=O)c21 (single isomer, unassigned) [Example 127] |  | > 1000 nM |  |  | EC50 ([1]; Table 1a): 379 nM
Nc1c(-c2ccc3c(c2)C(=O)NC3)c([C@H](Cc2cc(F)cc(F)c2)NC(=O)Cn2nc(C(F)F)c3c2C(F)(F)[C@@H]2C[C@H]32)nc2ncnn12 [Example 62, N—((S)-1-(7-amino-6-(3-oxoisoindolin-5-yl)-[1,2,4]triazolo[1,5-a]pyrimidin-5-yl)-2-(3,5-difluorophenyl)ethyl)-2-((3bS,4aR)-3-(difluoromethyl)-5,5-difluoro-3b,4,4a,5-tetrahydro-1H-cyclopropa[3,4]cyclopenta[1,2-c]pyrazol-1-yl)acetamide] |  | > 10000 nM | 86.3 nM |  | 
COc1ccc2c(=O)n(-c3cccc4c(NS(C)(=O)=O)nn(C)c34)c([C@H](Cc3cc(F)cc(F)c3)NC(=O)Cn3nc(C(F)F)c4c3C(F)(F)[C@@H]3C[C@H]43)nc2c1 (single isomer, unassigned) [Example 80] |  | > 1000 nM | 0.389 nM |  | 
Cn1nc(NS(C)(=O)=O)c2c(Cl)ccc(-n3c([C@H](Cc4cc(F)cc(F)c4)NC(=O)Cn4ccc(C5CC5)n4)nc4ccc(OC(F)(F)F)cc4c3=O)c21 (single isomer, unassigned) [Example 152] |  | > 1000 nM |  |  | EC50 ([1]; Table 1a): 173 nM
O=C(Cc1c[nH]c2ccc(F)cc12)NC(Cc1cc(F)cc(F)c1)c1nc2cn[nH]c2cc1-c1ccc2scnc2c1 (single isomer, unassigned) [Example 3.5, N-(1-(6-(benzo[d]thiazol-5-yl)-1H-pyrazolo[4,3-b]pyridin-5-yl)-2-(3,5-difluorophenyl)ethyl)-2-(5-fluoro-1H-indol-3-yl)acetamide] | 32100 nM |  |  |  | EC50 ([1]; Table 1): 20 nM
CC(C)c1ccc(-c2c([C@H](Cc3cc(F)cc(F)c3)NC(=O)Cn3nc(C(F)F)c4c3C(F)(F)[C@@H]3C[C@H]43)nc3ncnn3c2N)cn1 [Example 10.32, N—((S)-1-(7-amino-6-(6-isopropylpyridin-3-yl)-[1,2,4]triazolo[1,5-a]pyrimidin-5-yl)-2-(3,5-difluorophenyl)ethyl)-2-((3bS,4aR)-3-(difluoromethyl)-5,5-difluoro-3b,4,4a,5-tetrahydro-1H-cyclopropa[3,4]cyclopenta[1,2-c]pyrazol-1-yl)acetamide] | > 10000 nM |  |  | 54 nM | 
O=C(Cn1nc(C(F)F)c2c1C(F)(F)[C@@H]1C[C@H]21)N[C@@H](Cc1cc(F)cc(F)c1)c1nc2cn[nH]c2cc1-c1ccc2ccnn2c1 [Example 10.36, 2-((3bS,4aR)-3-(difluoromethyl)-5,5-difluoro-3b,4,4a,5-tetrahydro-1H-cyclopropa[3,4]cyclopenta[1,2-c]pyrazol-1-yl)-N—((S)-2-(3,5-difluorophenyl)-1-(6-(pyrazolo[1,5-a]pyridin-6-yl)-1H-pyrazolo[4,3-b]pyridin-5-yl)ethyl)acetamide] | > 10000 nM |  |  | 80 nM | 
CCOc1ccc2c(=O)n(-c3ccc(Cl)c4c(NS(C)(=O)=O)nn(C)c34)c([C@H](Cc3cc(F)cc(F)c3)NC(=O)Cn3nc(C(F)F)c4c3C(F)(F)[C@@H]3C[C@H]43)nc2n1 (mixture of isomers) [Example 60.2, N-[(1S)-1-[3-(4-chloro-3-methanesulfonamido-1-methyl-1H-indazol-7-yl)-7-ethoxy-4-oxo-3H,4H-pyrido[2,3-d]pyrimidin-2-yl]-2-(3,5-difluorophenyl)ethyl]-2-[(2S,4R)-9-(difluoromethyl)-5,5-difluoro-7,8-diazatricyclo[4.3.0.0^2,4]nona-1(6),8-dien-7-yl]acetamide] |  | > 1000 nM | 0.0174 nM |  | 
CC(C)c1ccc(-n2c([C@H](Cc3cc(F)cc(F)c3)NC(=O)Cn3nc(C(F)F)c4c3C(F)(F)[C@@H]3C[C@H]43)nc3ccccc3c2=O)cn1 [Example 10.34] | 7900 nM |  |  | 15 nM | 
Cn1nc(NS(C)(=O)=O)c2c(Cl)ccc(-n3c([C@H](Cc4cc(F)cc(F)c4)NC(=O)Cn4nc(C(F)F)c5c4C(F)(F)[C@@H]4C[C@H]54)nc4ccc(Cl)c(F)c4c3=O)c21 (single isomer, unassigned) [Example 176] |  | > 1000 nM |  |  | EC50 ([1]; Table 1a): 0.19 nM
Cc1ccc(C)c2c(=O)n(-c3ccc(Cl)c4c(NS(C)(=O)=O)nn(C)c34)c([C@H](Cc3cc(F)cc(F)c3)NC(=O)Cn3nc(C(F)F)c4c3C(F)(F)[C@@H]3C[C@H]43)nc12 (single isomer, unassigned) [Example 68] |  | > 1000 nM | 4.69 nM |  | 
Cn1nc(NS(C)(=O)=O)c2c(Cl)ccc(-n3c([C@H](Cc4cc(F)cc(F)c4)NC(=O)Cn4nc(C(F)F)c5c4C(F)(F)[C@@H]4C[C@H]54)nc4ccc(OC(F)(F)F)cc4c3=O)c21 (single isomer, unassigned) [Example 140] |  | > 1000 nM | 0.32 nM |  | 
CN1Cc2ccc(-c3cc4[nH]ncc4nc3[C@H](Cc3cc(F)cc(F)c3)NC(=O)Cn3nc(C(F)F)c4c3C(F)(F)[C@@H]3C[C@H]43)cc2C1=O [Example 23, 2-((3bS,4aR)-3-(difluoromethyl)-5,5-difluoro-3b,4,4a,5-tetrahydro-1H-cyclopropa[3,4]cyclopenta[1,2-c]pyrazol-1-yl)-N—((S)-2-(3,5-difluorophenyl)-1-(6-(2-methyl-3-oxoisoindolin-5-yl)-1H-pyrazolo[4,3-b]pyridin-5-yl)ethyl)acetamide] |  | 10000 nM | 21.8 nM |  | 
Cn1nc(NS(C)(=O)=O)c2c(Cl)ccc(-n3c([C@H](Cc4cc(F)cc(F)c4)NC(=O)Cn4nc(C(F)F)c5c4C(F)(F)[C@@H]4C[C@H]54)nc4ccc(F)cc4c3=O)c21 (single isomer, unassigned) [Example 21] | > 2700 nM |  |  | 45 nM | 
COc1ccc2c(=O)n(-c3ccc(Cl)c4c(NS(C)(=O)=O)nn(C)c34)c([C@H](Cc3cc(F)cc(F)c3)NC(=O)Cn3nc(C(F)F)c4c3C(F)(F)[C@@H]3C[C@H]43)nc2c1F (single isomer, unassigned) [Example 76] |  | > 1000 nM | 0.118 nM |  | 
Cc1cc(C)c2c(=O)n(-c3ccc(Cl)c4c(NS(C)(=O)=O)nn(C)c34)c(C(Cc3cc(F)cc(F)c3)NC(=O)Cn3nc(C(F)F)c4c3C(F)(F)[C@@H]3C[C@H]43)nc2n1 (mixture of isomers) [Example 42.1] |  | > 10000 nM | 12 nM |  | 
Cn1nc(NS(C)(=O)=O)c2c(Cl)ccc(-n3c([C@H](Cc4cc(F)cc(F)c4)NC(=O)Cn4nc(C(F)F)c5c4C(F)(F)[C@@H]4C[C@H]54)nc4cc(C5CC5)ccc4c3=O)c21 (mixture of isomers) [Example 197, N—((S)-1-(3-(4-chloro-1-methyl-3-(methylsulfonamido)-1H-indazol-7-yl)-7-cyclopropyl-4-oxo-3,4-dihydroquinazolin-2-yl)-2-(3,5-difluorophenyl)ethyl)-2-((3bS,4aR)-3-(difluoromethyl)-5,5-difluoro-3b,4,4a,5-tetrahydro-1H-cyclopropa[3,4]cyclopenta[1,2-c]pyrazol-1-yl)acetamide] |  | > 1000 nM |  |  | EC50 ([1]; Table 1a): 42.6 nM
COc1ccc(-n2c([C@H](Cc3cc(F)cc(F)c3)NC(=O)Cc3c[nH]c4ccc(O)cc34)nc3ccccc3c2=O)cc1 [Example 10.30] | > 10000 nM |  |  | 8 nM | 
O=C(Cn1nc(C(F)F)c2c1C(F)(F)[C@@H]1C[C@H]21)N[C@@H](Cc1cc(F)cc(F)c1)c1nc2cn[nH]c2cc1-c1ccc(F)c(C(=O)O)c1 [Example 10.25, 5-(5-((S)-1-(2-((3bS,4aR)-3-(difluoromethyl)-5,5-difluoro-3b,4,4a,5-tetrahydro-1H-cyclopropa[3,4]cyclopenta[1,2-c]pyrazol-1-yl)acetamido)-2-(3,5-difluorophenyl)ethyl)-1H-pyrazolo[4,3-b]pyridin-6-yl)-2-fluorobenzoic acid] | > 10000 nM |  |  | 580 nM | 
CC(C)c1ccc(-c2cc3[nH]ccc3nc2[C@@H](Cc2cc(F)cc(F)c2)NC(=O)Cn2nc(C(F)F)c3c2C(F)(F)[C@@H]2C[C@H]32)cn1 [Example 85, 2-((3bS,4aR)-3-(difluoromethyl)-5,5-difluoro-3b,4,4a,5-tetrahydro-1H-cyclopropa[3,4]cyclopenta[1,2-c]pyrazol-1-yl)-N—((R)-2-(3,5-difluorophenyl)-1-(6-(6-isopropylpyridin-3-yl)-1H-pyrrolo[3,2-b]pyridin-5-yl)ethyl)acetamide] |  | > 3160 nM | 299 nM |  | 
O=C(Cn1nc(C(F)F)c2c1C(F)(F)[C@@H]1C[C@H]21)NC(Cc1cc(F)cc(F)c1)c1nc2cn[nH]c2cc1-c1ccc(C2CC2)cc1 (single isomer, unassigned) [Example 3.11] | 4200 nM |  |  | 670 nM | 
COc1ccc2c(=O)n(-c3ccc(Cl)c4c(NS(C)(=O)=O)nn(C)c34)c([C@H](Cc3cc(F)cc(F)c3)NC(=O)Cn3ccc(C4CC4)n3)nc2n1 (mixture of isomers) [Example 58.1, N-[(1S)-1-[3-(4-chloro-3-methanesulfonamido-1-methyl-1H-indazol-7-yl)-7-methoxy-4-oxo-3H,4H-pyrido[2,3-d]pyrimidin-2-yl]-2-(3,5-difluorophenyl)ethyl]-2-(3-cyclopropyl-1H-pyrazol-1-yl)acetamide] |  | > 1000 nM |  |  | EC50 ([1]; Table 1a): 2.26 nM

— US10954252B1, “Inhibitors of human immunodeficiency virus replication” (ViiV HEALTHCARE UK (NO.5) LIMITED, priority 2017, dated 2021)
